Common to all, as to test: General post-emergent herbicidal activity, foliar application
What all share (format): in vivo

In one assay the test system is Zea mays L. (corn). The note with it: 336 h, scored after 14 days, read-out: % Visual Growth Reduction ZEAMX. Put shortly: (§1)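 Injury rated visually 14 days after treatment on a 0 (none) to 100% (complete kill) scale against untreated plants; greenhouse-grown, sub-irrigated to avoid wash-off. Foliar spray in aqueous acetone/DMSO with isopropanol, crop oil concentrate and Triton X-155, at a highest rate and 2-fold serial dilutions down to 1/16×.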

The next assay has as its system Oryza sativa L. (rice). As to conditions: Oryza sativa, 336 h, scored after 14 days, read-out: % Visual Growth Reduction ORYSA. Put shortly:
as §1

Assay [1] deals with Chenopodium album L. (lambsquarters, common). Put shortly: (§2)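 Compounds in acetone/DMSO 97:3 were diluted into aqueous spray mix with isopropanol, crop oil concentrate and Triton X-155, then serially diluted to 1/2×–1/16× of the top rate and sprayed on foliage. Plants were kept in greenhouse with sub-irrigation. Injury was scored visually (0–100%) at 14 days; GR20/GR50/GR80 came from probit analysis.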

For assay [2], the system named is Helianthus annuus L. (sunflower, common). Put shortly:
as §2

Assay [3] concerns Amaranthus retroflexus L. (pigweed, redroot). Put shortly: as §2
For assay [4], the system named is Viola tricolor L. (pansy). Put shortly: as §2
Assay [5] deals with Euphorbia heterophylla L. (poinsettia, wild). Put shortly:
as §2

Assay [6] deals with Echinochloa crus-galli (L.) Beauv. (barnyardgrass). Put shortly:
as §2

[7] abbreviates: calculated by probit analysis, dose for 80% visual injury, may be extrapolated.

SMILES strings stand for the structures.

For the molecule `COC(=O)c1nc(CF)cc(N)c1Cl` [Compound F26, methyl 4-amino-3-chloro-6-(fluoromethyl)picolinate], the plant injury at 37 g/ha in the assay on Zea mays L. (corn) (37 g ai/ha) and in the assay on Oryza sativa L. (rice) (37 g ai/ha) was 0% throughout. In addition, the plant injury at 74 g/ha in the assay on Zea mays L. (corn) (74 g ai/ha) and in the assay on Oryza sativa L. (rice) (74 g ai/ha) was 0% throughout. The plant injury at 148 g/ha in the assay with Zea mays L. (corn) (148 g ai/ha) is 10%; in the assay on Oryza sativa L. (rice) (148 g ai/ha), 0%. For the same molecule, the pest or weed control at 37 g/ha turned out to be 90% in assay [1] (Chenopodium album, 336 h, 37 g ai/ha, foliar post-emergent, scored after 14 days, read-out: % Visual Growth Reduction CHEAL); 70% in assay [2] (Helianthus annuus, 336 h, 37 g ai/ha, foliar post-emergent, scored after 14 days, read-out: % Visual Growth Reduction HELAN); 0% in assay [3] (Amaranthus retroflexus, 336 h, 37 g ai/ha, foliar post-emergent, scored after 14 days, read-out: % Visual Growth Reduction AMARE); 10% in assay [4] (Viola tricolor, 336 h, 37 g ai/ha, foliar post-emergent, scored after 14 days, read-out: % Visual Growth Reduction VIOTR); 90% in assay [5] (Euphorbia heterophylla, 336 h, 37 g ai/ha, foliar post-emergent, scored after 14 days, read-out: % Visual Growth Reduction EPHHL); 0% in assay [6] (Echinochloa crus-galli, 336 h, 37 g ai/ha, foliar post-emergent, scored after 14 days, read-out: % Visual Growth Reduction ECHCG). Also, the pest or weed control at 74 g/ha is 90% in assay [1] (Chenopodium album, 336 h, 74 g ai/ha, foliar post-emergent, scored after 14 days, read-out: % Visual Growth Reduction CHEAL); 90% in assay [2] (Helianthus annuus, 336 h, 74 g ai/ha, foliar post-emergent, scored after 14 days, read-out: % Visual Growth Reduction HELAN); 80% in assay [3] (Amaranthus retroflexus, 336 h, 74 g ai/ha, foliar post-emergent, scored after 14 days, read-out: % Visual Growth Reduction AMARE); 15% in assay [4] (Viola tricolor, 336 h, 74 g ai/ha, foliar post-emergent, scored after 14 days, read-out: % Visual Growth Reduction VIOTR); 100% in assay [5] (Euphorbia heterophylla, 336 h, 74 g ai/ha, foliar post-emergent, scored after 14 days, read-out: % Visual Growth Reduction EPHHL); 0% in assay [6] (Echinochloa crus-galli, 336 h, 74 g ai/ha, foliar post-emergent, scored after 14 days, read-out: % Visual Growth Reduction ECHCG). The pest or weed control at 148 g/ha in assay [1] (Chenopodium album, 336 h, 148 g ai/ha, foliar post-emergent, scored after 14 days, read-out: % Visual Growth Reduction CHEAL) was 90%; in assay [2] (Helianthus annuus, 336 h, 148 g ai/ha, foliar post-emergent, scored after 14 days, read-out: % Visual Growth Reduction HELAN) it was 90%; in assay [3] (Amaranthus retroflexus, 336 h, 148 g ai/ha, foliar post-emergent, scored after 14 days, read-out: % Visual Growth Reduction AMARE), 90%; in assay [4] (Viola tricolor, 336 h, 148 g ai/ha, foliar post-emergent, scored after 14 days, read-out: % Visual Growth Reduction VIOTR), 70%; in assay [5] (Euphorbia heterophylla, 336 h, 148 g ai/ha, foliar post-emergent, scored after 14 days, read-out: % Visual Growth Reduction EPHHL) it was 100%; in assay [6] (Echinochloa crus-galli, 336 h, 148 g ai/ha, foliar post-emergent, scored after 14 days, read-out: % Visual Growth Reduction ECHCG), 20%. For the same molecule, the “GR80 Value CHEAL” value in assay [1] (setting [7]) is 29 g ai/ha. In addition, the “GR80 Value HELAN” value in assay [2] (setting [7]) was 48.3 g ai/ha. Further, in assay [3] (setting [7]), the “GR80 Value AMARE” value was 104 g ai/ha. Further, the “GR80 Value VIOTR” value in assay [4] (setting [7]) is 223 g ai/ha. Also, the “GR80 Value EPHHL” value in assay [5] (setting [7]) was 38.8 g ai/ha. In assay [6] (setting [7]), the “GR80 Value ECHCG” value was above 148 g ai/ha.

Take `COC(=O)c1nc(C(Br)CBr)cc(N)c1Cl` (centres unmarked) [Compound F34, methyl 4-amino-3-chloro-6-(1,2-dibromoethyl)picolinate]: the plant injury at 264 g/ha with Zea mays L. (corn) (264 g ai/ha) and in the assay on Oryza sativa L. (rice) (264 g ai/ha) was 0% each time. Further, the pest or weed control at 264 g/ha in assay [1] (Chenopodium album, 336 h, 264 g ai/ha, foliar post-emergent, scored after 14 days, read-out: % Visual Growth Reduction CHEAL) worked out at 60%; in assay [2] (Helianthus annuus, 336 h, 264 g ai/ha, foliar post-emergent, scored after 14 days, read-out: % Visual Growth Reduction HELAN) it was 80%; in assay [3] (Amaranthus retroflexus, 336 h, 264 g ai/ha, foliar post-emergent, scored after 14 days, read-out: % Visual Growth Reduction AMARE), 0%; in assay [4] (Viola tricolor, 336 h, 264 g ai/ha, foliar post-emergent, scored after 14 days, read-out: % Visual Growth Reduction VIOTR) it was 0%; in assay [5] (Euphorbia heterophylla, 336 h, 264 g ai/ha, foliar post-emergent, scored after 14 days, read-out: % Visual Growth Reduction EPHHL) it was 10%; in assay [6] (Echinochloa crus-galli, 336 h, 264 g ai/ha, foliar post-emergent, scored after 14 days, read-out: % Visual Growth Reduction ECHCG) it was 0%.

The record behind these values is patent publication US9603364B2 (Dow AgroSciences LLC, priority 2013, dated 2017).
